Source: US5776685A, “Protein kinase C assay” (Joslin Diabetes Center, priority 1996, dated 1998)
Entries after “also recorded” stand apart in the source; their conditions may differ.

Experiments:
[1] = system: Saccharomyces cerevisiae strain 334 expressing bovine PKC alpha; test: Cell doubling time of yeast cultures expressing PKC alpha wild type and mutant cDNAs; format: cell-based; conditions: 2% galactose; for average cell doubling time: synthetic minimal medium, CD26 and ND153 values phorbol ester-independent
Protocol: FIG. 2 is a graph of cell doubling time of yeast cultures expressing PKC alpha wild type and mutant cDNAs. Freshly saturated cultures expressing control plasmids (Cont.), normal PKC alpha (PKCa) or deletion mutants D172-225, ND153 or CD26 were diluted to low cell densities. Cell growth was followed on a roller at 30 degrees C to measurable cell densities of the logarithmic growth phase at 0.2-0.6 O.D. 600. […] Average doubling times were calculated.
Yeast strains and culture conditions. PKC expression plasmids and YEp51 or YEp52 as controls were introduced into Saccharomyces cerevisiae strain 334 [MAT alpha, pep 4-3, prb1-122, ura 3-52; leu2-3, 112, reg1-501, gal1]by lithium acetate transformation See e.g., Ito et al. 1983, J. Bacterial. 153: 163. Cells were routinely grown at 30 degrees C on a culture roller or shaker in liquid culture or on 1.5% agar plates. The synthetic medium contained 2% glucose and was leucine-free to select for stable propagation of the expression plasmids. Expressing yeast colonies were identified phenotypically by replica plating on medium containing or lacking PMA. Phenol extracts of crude cell lysates were prepared to re-transform Escherichia coli DH5 alpha. PKC mutants were characterized by DNA sequencing and defined plasmids were re-introduces into S. cerevisiae 334. These strains were used in all experiments shown. 50 ml cultures were routinely inoculated from freshly saturated cultures and grown for 16 h to an optical density of 0.4 at O.D.600.
Cell doubling times were measured by O.D.600 reading of liquid cultures in the presence of 2% galactose as shown in FIG. 2 to test whether they correlate with the specific phenotypes (colony size) caused by normal mutant PKC alpha. […] A normal 4 hours doubling time was measured for all constructs in the absence of galactose.

[2] = system: Saccharomyces cerevisiae strain 334 expressing bovine PKC alpha; test: Phenotypic screen of PKC alpha mutant activity by yeast colony size on agar plates; format: cell-based; conditions: 2% galactose; for yeast colony size: 3 days
Protocol: The phenotypic screen of PKC alpha mutant activity by yeast colony size was performed as follows. […] Plates (9 cm diameter) were photograph after 3 days.
Galactose stimulation of cDNA expression resulted for some PKC forms in specific, decreased yeast colony sizes which were either dependent on or independent of phorbol ester activation after 3 days. […] Microscopically small colonies expressing ND153 grew to visible sizes with rates independently of PMA. Colonies expressing PKC alpha grew even more slowly to visible sizes during continued incubation in the presence of PMA.

bovine PKC alpha [3] = test: [3H]PDBu binding to yeast spheroplasts expressing PKC alpha forms; conditions: 14 nM [3H]PDBu
Protocol: FIG. 3 is a graph of phorbol ester binding to cells expressing PKC alpha wild type and mutant proteins.
Phorbol ester binding. About 6×10^8 expressing cells were washed twice in 10 mM K-phosphate buffer pH 7.0, 20 mM EDTA, once in 1M sorbitol and were resuspended in 10 ml 10 mM K-phosphate buffer pH 7.0, 1.1M sorbitol, 0.5 mM CaC12. Cells were incubated with 1 U glusulase (beta-glucuronidase/arylsulfatase from Helix pomatia, Boehringer Mannheim) for about 1 hour under shaking at 30 degrees C to remove the cell wall until test cell suspensions cleared in H2 O due to cell lysis.
Both were about 13-fold elevated over background levels of control cells. Similar findings have been reported for PKC overexpression in transfected mammalian fibroblasts. […] The internal deletion of aa 172-225 led to phorbol ester binding levels reduced by 60% compared to normal PKC alpha, a potential consequence of the removal of parts of the C2 domain.

bovine PKC alpha [4] = test: PKC catalytic activity in vitro (phosphorylation of [ser25]PKC19-31 in detergent cell extracts); format: biochemical; conditions: for PMA and Ca^2+ stimulated mutant PKC activity: Ca^2+: Ca^2+ stimulation of in vitro catalytic activity; for PMA and Ca^2+ stimulated mutant PKC activity: PMA: PMA stimulation, common symbol for in vitro catalytic activity and PMA-mediated increase of cell doubling time; for PMA and Ca^2+ stimulated mutant PKC activity: -: no stimulus (basal), common symbol for in vitro catalytic activity and cell doubling time response
Protocol: FIG. 4 is a graph which compares PKC mutant and wild type catalytic activities in vitro. […] Catalytic activity was stimulated by combinations of phosphatidylserine (PS), the phorbol ester PMA and calcium ions (Ca^2+). PS, open; PMA+PS, solid; Ca^2+ +PS, diagonally striped.
Cell lysis. About 6×10^8 expressing cells were washed in PBS and were resuspended in 1 ml lysis buffer containing 1% Triton X100, 50 mM Hepes pH 7.4, 15-mM NaC1, 5 mM EDTA, 5 mM EGTA, 10 μg/ml pepstatin, 40 μg/ml leupeptin, 10 μg/ml aprotinin and 200 μg/ml PMSF. Cell suspensions mixed with the same volume of acid washed glass beads (450-500 μm) were lysed mechanically by six 30 second vortexing steps interrupted by cooling on ice for at least 30 second in 50 ml screw cap polypropylene tubes. The lysate was cleared by 4,000 g centrifugation for 15 minutes at 4 degrees C and stored at […] for up to several weeks.
PKC catalytic activity. […] Phosphatidylserine in chloroform, with or without PMA was evaporated under N2 to dryness, resuspended in 20 mM Tris pH 7.5, mixed and sonicated at 4 degrees C for 45 seconds before use. To terminate the reaction the sample was placed on phosphocellulose paper (Whatman P81) which was repeatedly washed in 75 mM phosphoric acid. Bound radioactivity was determined by liquid scintillation spectroscopy.

[5] = system: Saccharomyces cerevisiae strain 334 expressing bovine PKC alpha; test: 45Ca2+ uptake into yeast cells expressing PKC alpha forms; format: cell-based; conditions: for Ca2+ uptake after PMA stimulation over the control cell background: 1 μM PMA; for increase in Ca^2+ uptake (basal): without PMA stimulation, versus control cells
Protocol: FIG. 5 is a graph of the modulation of extracellular Ca2+uptake by PKC alpha wild type and mutants.
^45 Ca^2 + uptake. Expressing yeast cells after 16 h in 2% galactose medium were washed with PBS when reaching 0.5 O.D.600. 10^7 cells were suspended in 100 μl of 50 mM MES pH 6.5, 5 mM MgSO4 and incubated with 1 μM PMA for 1 h at 30 degrees C under shaking on 96-well plates. Subsequently uptake of 2 μCi 45 Ca2+ at 300 μM CaCl2 was measured for 2 hours. Cells were rapidly transferred to Multiscreen filtration microtiter plates (Millipore) and washed four times with 200 μl of 10 mM MES, 10 mM Tris, 35 mM CaC12 pH 6.0. Filters were dried and cell-associated radioactivity was determined by liquid scintillation spectroscopy.
Ca^2+ influx has been reported in response to PKC activation in a variety of eukaryotic cells such as Nitella syncarpa plasmalemma, Aplysia bag cell neurons, rat ventricular myocytes and rat pituitary cells. To test whether the measured catalytic activities and the yeast phenotype correlate with other biological responses mediated by PKC, ^45 Ca^2+ uptake into expressing cells was determined after PMA stimulation. […] These responses are consistent with the catalytic activities and phenotypic responses of the mutants: elevated basal activity of ND153, full and reduced phorbol ester-stimulated activity of normal PKC alpha and D172-225, respectively, and lack of activity for CD26.

rat PKC β-1 = target: T1, rat PKC β-1 (Rattus norvegicus, UniProt P68403); test: PKC beta-1 enzymatic activity in detergent cell extracts; format: biochemical; conditions: phospholipid dependent
T1 construct: we inserted the complete protein coding cDNA of rat PKC β-1; made in house; host or cells: Saccharomyces cerevisiae strain 334, YEp51 with GAL10 promoter; crude detergent cell extract
T1 sequence (P68403 2-671): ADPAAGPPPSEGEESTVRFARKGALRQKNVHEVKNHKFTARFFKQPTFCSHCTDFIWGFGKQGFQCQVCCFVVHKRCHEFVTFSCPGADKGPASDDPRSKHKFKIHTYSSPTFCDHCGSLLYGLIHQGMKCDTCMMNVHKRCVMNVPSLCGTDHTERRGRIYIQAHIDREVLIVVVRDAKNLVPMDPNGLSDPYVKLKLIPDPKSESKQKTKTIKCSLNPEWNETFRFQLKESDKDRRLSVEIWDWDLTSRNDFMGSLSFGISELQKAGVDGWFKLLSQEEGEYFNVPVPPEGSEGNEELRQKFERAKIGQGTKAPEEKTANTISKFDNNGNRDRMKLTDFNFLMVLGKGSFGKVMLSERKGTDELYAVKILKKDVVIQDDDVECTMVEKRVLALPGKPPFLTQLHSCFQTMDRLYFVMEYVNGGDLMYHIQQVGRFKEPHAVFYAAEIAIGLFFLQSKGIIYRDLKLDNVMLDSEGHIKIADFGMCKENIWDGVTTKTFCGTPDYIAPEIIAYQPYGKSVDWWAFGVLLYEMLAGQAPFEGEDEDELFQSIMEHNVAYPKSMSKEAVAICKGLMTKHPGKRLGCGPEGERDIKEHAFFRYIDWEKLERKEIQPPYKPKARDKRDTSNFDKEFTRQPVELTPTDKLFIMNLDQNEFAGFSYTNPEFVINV
Protocol: Duplicate measurements have routinely been made in our experiments. […] The methods described here are for the bovine PKC alpha experiments. The same or similar methods were used in the rat PKC beta-1 experiments.
PKC catalytic activity. PKC catalytic activity was measured as described in Hu et al., 1990, J. Biol. Chem. 265: 13864 by phosphorylation of 3 μg of the specific substrate peptide […] (Seq. ID No. 7) (Gibco, BRL) in the presence of 5 μCi [gamma-32P]ATP (3000 Ci/mmol) in 125 μl of 5-fold diluted cell extract for 30 min. at 25 degrees C with combinations of 160 μg/ml phosphatidylserine (Avanti Polar Lipids, Inc.), 1 μm PMA and 5 mM CaCl2. […] Bound radioactivity was determined by liquid scintillation spectroscopy.
To compare the enzymatic activity of normal and truncated PKC forms, phosphorylation of the PKC-specific substrate [ser^25 ]PKC19-31 a derivative of the pseudosubstrate sequence was measured in detergent cell extracts in response to combinations of phosphatidylserine, the phorbol ester PMA (phorbol-12-myristate-13-acetate), and Ca^2+. In the presence of phosphatidylserine alone only a background level of phosphorylation was detected in all samples including control cells which likely represents the activity of other endogenous yeast protein kinases.

PKC alpha: bovine protein kinase C alpha, full length, expressed in yeast
increase in the cell doubling time ([1]; absence of phorbol ester): 50%
average cell doubling time ([1]; absence of phorbol ester): 6 h
cell doubling time ([1]; phorbol ester stimulation (1 μM PMA)): 16 h
yeast colony size ([2]; absence of phorbol ester): reduced colony sizes
yeast colony size ([2]; phorbol ester activation (1 uM PMA)): substantially reduced yeast colony size; also recorded: substantially further decreased to microscopically small sizes
[3H]PDBu binding level over background levels of control cells (bovine PKC alpha [3]): about 13 fold
PMA and Ca^2+ stimulated mutant PKC activity: Ca^2+ (bovine PKC alpha [4]): ++
stimulation of catalytic activity by phorbol ester (bovine PKC alpha [4]; PMA + phosphatidylserine): more than 20 fold
PMA and Ca^2+ stimulated mutant PKC activity: PMA (bovine PKC alpha [4]): ++
PMA and Ca^2+ stimulated mutant PKC activity: - (bovine PKC alpha [4]): -
catalytic activity in the presence of phosphatidylserine alone (elevated level) (bovine PKC alpha [4]; phosphatidylserine alone): no catalytic activity was detected
Ca2+ uptake after PMA stimulation over the control cell background [5]: up to 4 fold
increase in Ca^2+ uptake (basal) [5]: 1.4 fold

diacylglycerol
stimulation of PKC β-1 catalytic activity (rat PKC β-1): stimulated by diacylglycerol similar to PMA

CD26: PKCa deletion of aa 647-672
average cell doubling time ([1]; absence of phorbol ester): 4 h
yeast colony size / phenotype ([2]; independent of phorbol ester): wild-type phenotype under any condition
[3H]PDBu binding level over background levels of control cells (bovine PKC alpha [3]): about 13 fold
PMA and Ca^2+ stimulated mutant PKC activity: Ca^2+ (bovine PKC alpha [4]): -
PMA and Ca^2+ stimulated mutant PKC activity: PMA (bovine PKC alpha [4]): -
catalytic activity under any conditions (bovine PKC alpha [4]; combinations of phosphatidylserine, PMA and calcium): no activity was detected
PMA and Ca^2+ stimulated mutant PKC activity: - (bovine PKC alpha [4]): -
Ca2+ uptake after PMA stimulation over the control cell background [5]: unaffected by phorbol ester
increase in Ca^2+ uptake (basal) [5]: same basal response as control cells
